For 41 compounds, emission maximum results are on record in the Deep4Chem optical property database.

The data set can be described thus: solvent given as SMILES.
Setting [1] is: in O=P(c1ccccc1)(c1ccccc1)c1ccccc1Oc1ccccc1P(=O)(c1ccccc1)c1ccccc1.

As for `Cn1c(=O)nc2n(C)c3ccccc3nc-2c1=O`, the emission maximum was found to be 490 nm (in CC1CCCO1) and 529 nm (in CC#N).
With `O=[N+]([O-])c1ccc(-n2c3ccccc3c3c2c2ccccc2n3-c2ccccc2)cc1`, where the note is “in Cc1ccccc1”, the emission maximum stood at 660 nm.
On to `COc1ccc2c(c1)c1cc(OC)ccc1n2-c1cccc(-n2c3ccc(OC)cc3c3cc(OC)ccc32)c1C#N`, for which the emission maximum is, setting by setting: (in Cc1ccccc1) 460 nm; under setting [1], 462 nm.
`C=C(C)C(CN1C(=O)c2cccc3c2c(cc2oc(C)nc23)C1=O)OO` (centres undefined): the emission maximum (in CCO) is given as 416 nm.
`CCNc1cc2oc(=O)c3c(=O)oc4ccccc4c3c2cc1C` gave an emission maximum (in CS(C)=O) of 552 nm and an emission maximum (in ClCCl) of 509 nm.
`O=C1C2=C3c4sccc4C=CN3C(=O)C2=C2c3sccc3C=CN12`: the emission maximum by setting is: (in CN(C)C=O) 618 nm; (in ClC(Cl)Cl) 609 nm.
Consider `O=c1c2cc(Cl)ccc2[nH]c2ccc(COO)cc12`, for which, for the setting “in O”, the emission maximum was 425 nm.
Take `CCCc1ccc(C#Cc2ccc3nc4ccc(C#Cc5ccc(CCC)cc5)cn4c(=O)c3c2)cc1`: the emission maximum (in ClCCl) was 480 nm.
Turning to `CC1=[N+]2C(=C(c3ccccc3C)c3ccc(C)n3[B-]2(F)F)C=C1c1cc2n(c1)[B-](F)(F)[N+]1=CC=CC1=C2c1c(C)cc(C)cc1C`, the emission maximum by setting is: (in C1CCCCC1) 640 nm; (in CCOC(C)=O) 679 nm.
For the compound `O=C([O-])c1ccccc1-c1c2cc(I)c(=O)c(I)c-2oc2c(I)c([O-])c(I)cc12`, the emission maximum runs as follows: (in CC(C)O) 557 nm; (in CCO) 551 nm; (in CO) 545 nm; (in O) 534 nm.
Turning to `Cc1ccc(-c2c3ccc([nH]3)c3nc(c(-c4ccc(C#N)cc4)c4ccc([nH]4)c4ccc([nH]4)c(-c4ccc(C)cc4)c4ccc2o4)C=C3)cc1`, the emission maximum is on record as 730 nm (in C1CCOC1), 722 nm (in Cc1ccccc1) and 722 nm (in c1ccccc1).
Turning to `N#Cc1c(/C=C/c2ccc(N(c3ccccc3)c3ccccc3)cc2)cc(-c2ccccc2)cc1N1CCCCC1`, the emission maximum (in CS(C)=O) turned out to be 520 nm.
Turning to `Cc1cc(-c2nc(-c3ccccc3)nc(-c3ccccc3)n2)ccc1N1c2ccccc2C2(c3ccccc3-c3ccccc32)c2ccccc21`, the emission maximum (in Cc1ccccc1) is 481 nm.
For the compound `Cc1cc(C)c(C)c(-c2cc(-c3c(C)c(C)cc(C)c3C)c3ccc4c(-c5c(C)c(C)cc(C)c5C)cc(-c5c(C)c(C)cc(C)c5C)c5ccc2c3c54)c1C`, the emission maximum (in ClCCl) is given as 412 nm.
`CC(=O)c1ccc(-c2nc3ccc(N(C)C)c(Cl)c3s2)cc1`: the emission maximum by setting is: (in C1CCCCC1) 424 nm; (in CC#N) 568 nm; (in CC(C)O) 585.02 nm; (in CO) 629 nm; (in CS(C)=O) 569.23 nm; (in ClC(Cl)Cl) 506 nm. The emission maximum (in c1ccccc1) worked out at 474.9 nm.
For the compound `CC(C)(C)c1ccc(-c2nc3c4ccccc4c4ccccc4c3n2-c2ccc(C(C)(C)C)cc2)cc1`, the emission maximum was determined as 390 nm (in C1CCOC1); 389 nm (in C1COCCO1); 389 nm (in CC#N); 385 nm (in CCCCCC); 389 nm (in CCCCOCCCC); 388 nm (in CCN(CC)CC). This compound also yielded an emission maximum (in CCOC(C)=O) of 390 nm; an emission maximum (in CCOCC) of 388 nm; an emission maximum (in CN(C)C=O) of 391 nm; an emission maximum (in Cc1ccccc1) of 390 nm; an emission maximum (in ClC=C(Cl)Cl) of 392 nm; an emission maximum (in ClCCl) of 392 nm.
Where the note is “in ClCCl”, `COc1ccc(C2=C3C(/C=C/c4cc(OC)c(OC)c(OC)c4)=C(C=O)C(/C=C/c4cc(OC)c(OC)c(OC)c4)=[N+]3[B-](F)(F)n3c(/C=C/c4cc(OC)c(OC)c(OC)c4)c(C=O)c(C=Cc4cc(OC)c(OC)c(OC)c4)c32)cc1` registered an emission maximum of 722 nm.
Same read-out and setting: then `CCCCCCn1c(=O)c2c3[nH]c4ccccc4[nH]c3c3c(=O)n(CCCCCC)c(=O)c3c2c1=O`, with 641 nm.
`CCCCN1c2ccccc2Sc2cc(/C=C/c3nc4nc5ccccc5nc4s3)ccc21` gave an emission maximum (in C1CCCCC1) of 558 nm; an emission maximum (in C1CCOC1) of 670 nm; an emission maximum (in C1COCCO1) of 640 nm; an emission maximum (in CC(C)=O) of 739 nm; an emission maximum (in CCOC(C)=O) of 670 nm; an emission maximum (in CCOCC) of 635 nm. Also, the emission maximum (in Cc1ccccc1) is on record as 621 nm and the emission maximum (in ClCCl) came out at 729 nm.
In turn, `O=c1c2ccccc2sc2ccc(-n3c4ccccc4c4ccccc43)cc12` had an emission maximum (in C1CCOC1) of 452.5 nm; an emission maximum (in CCCCCC) of 436 nm; an emission maximum (in Cc1ccccc1) of 447.5 nm; an emission maximum (in ClC(Cl)Cl) of 486.5 nm; an emission maximum (in ClCCl) of 483.5 nm.
`COCCOCCOCCOCC(COCCOCCOCCOC)Oc1cc(/C=C/c2ccc(/C=C(\C#N)c3ccncc3)cc2)c(OC(COCCOCCOCCOC)COCCOCCOCCOC)cc1/C=C/c1ccc(/C=C(\C#N)c2ccncc2)cc1` showed an emission maximum (in ClCCl) of 574 nm.
On to `COc1ccc(-c2nc(-c3ccccc3OC)[nH]c2-c2ccc(OC)cc2)cc1`, for which, under “in CO”, the emission maximum was 392 nm.
`c1ccc2c3c(ccc2c1)-c1c2ccccc2cc2cccc-3c12`: the emission maximum (in CCCCCCC) is 603 nm.
Compound `O=C(O)COc1cccc(-c2c3nc(cc4ccc([nH]4)c(-c4cccc(OCC(=O)O)c4)c4nc(cc5ccc2[nH]5)C=C4)C=C3)c1` came in with an emission maximum (in CS(C)=O) of 633 nm.
On to `COc1ccc(-c2nnc(-c3cc(-c4nnc(-c5ccc(OC)cc5)o4)c(-n4c5ccccc5c5ccccc54)cc3-n3c4ccccc4c4ccccc43)o2)cc1`, for which the emission maximum was 428 nm (in Cc1ccccc1) and 452 nm under setting [1].
Consider `CCCCOc1ccc(-c2oc3c(-c4ccc(OCCCC)cc4)c4n(c3c2-c2ccc(OCCCC)cc2)[B-](F)(F)[N+]2=Cc3c(-c5ccc(OCCCC)cc5)c5oc(-c6ccc(OCCCC)cc6)c(-c6ccc(OCCCC)cc6)c5n3[B-](F)(F)[N+]2=C4)cc1`, for which the emission maximum was 663 nm (in C1CCOC1); 672 nm (in CN(C)C=O); 676 nm (in CS(C)=O); 668 nm (in Cc1ccccc1); 666 nm (in ClC(Cl)Cl); 667 nm (in ClCCl).
As for `CCOc1cc(C=C2c3ccccc3-c3ccccc32)c(OCC)cc1C=C1c2ccccc2C=Cc2ccccc21`, the emission maximum (in C1CCOC1) is given as 474 nm.
As for `COc1cccc(/C=C/C(=O)c2c(O)cc(C)oc2=O)c1`, the emission maximum runs as follows: (in CC#N) 500 nm; (in ClCCl) 490 nm.
Turning to `CCc1c(C)c2n(c1C)[B-](F)(F)[N+]1=C(C=C3C=Cc4ccccc43)C=CC1=C2C`, where the note is “in C1CCCCC1”, the emission maximum is given as 596 nm.
`COc1cc(/C=C/c2cc[n+](Cc3ccc(Br)cc3)cc2)ccc1O`: the emission maximum (in CC#N) was 557 nm; the emission maximum (in CC(C)=O) worked out at 562 nm; the emission maximum (in CC(C)CO) was 556 nm; the emission maximum (in CC(C)O) came out at 559 nm; the emission maximum (in CCC#N) is 559 nm; the emission maximum (in CCCCCCO) was 553 nm. The emission maximum (in CCCCCO) is 554 nm; the emission maximum (in CCCCO) is given as 558 nm; the emission maximum (in CCCO) is given as 559 nm; the emission maximum (in CCO) was found to be 564 nm; the emission maximum (in CN(C)C=O) is on record as 565 nm; the emission maximum (in CN(C)P(=O)(N(C)C)N(C)C) was found to be 567 nm. Besides, the emission maximum is recorded as 566 nm (in CO) and 568 nm (in CS(C)=O).
As for `c1ccc(-c2ccc(-c3cn4ccc[n+]4[n-]3)cc2)cc1`, under “in ClCCl”, the emission maximum is 456 nm.
In the case of `c1ccccc1`, under “in C1CCCCC1”, the emission maximum is given as 287.36 nm.
As for `COc1ccc(/C=C2\OC(=O)c3cc(N)ccc32)cc1`, the emission maximum by setting is: (in CC#N) 450.25 nm; (in CC(C)=O) 446.03 nm; (in CC(C)CO) 474.83 nm; (in CC(C)O) 481.23 nm; (in CCCO) 482.63 nm; (in CCO) 485.44 nm. In addition, the emission maximum was 445.04 nm (in CCOC(C)=O), 443.26 nm (in CCOCC) and 486.14 nm (in CO).
In turn, `CCn1c2ccccc2c2cc(-c3cc(-c4ccc5c(c4)c4ccccc4n5CC)nc(SC)n3)ccc21` yielded an emission maximum (in C1CCOC1) of 394 nm; an emission maximum (in CCOC(C)=O) of 392 nm; an emission maximum (in CN(C)C=O) of 421 nm; an emission maximum (in Cc1ccccc1) of 387 nm; an emission maximum (in ClCCl) of 411 nm.
In the case of `Cc1nnc(-c2cc(-c3nnc(C)o3)c(-n3c4ccccc4c4ccccc43)cc2-n2c3ccccc3c3ccccc32)o1`, the emission maximum runs as follows: (in Cc1ccccc1) 444 nm; under setting [1], 448 nm.
Regarding `Clc1ccccc1-c1nc2sc3ccccc3c2s1`, the emission maximum (in CS(C)=O) was found to be 412 nm.
`COc1cc(N(CC(=O)[O-])CC(=O)[O-])c2nc(COc3cc(C)ccc3N(CC(=O)[O-])CC(=O)[O-])ccc2c1`: the emission maximum (in O) is recorded as 500 nm.
Under “in ClCCl”, `CCCc1c(C(=O)c2ccc3c4c(cccc24)-c2cccc4c2C3CC=C4)c2ccc3cccc4c5cccc6ccc1c(c65)c2c34` (centres undefined) yielded an emission maximum of 526 nm.
In the case of `c1ccc(N(c2ccccc2)c2ccc(-c3ccc4c(c3)C3(c5cc(-c6ccc(N(c7ccccc7)c7ccccc7)cc6)ccc5O4)c4ccccc4-c4ccccc43)cc2)cc1`, the emission maximum reads like this: (in ClCCl) 419 nm; (in c1cc(-n2c3ccccc3c3ccccc32)cc(-n2c3ccccc3c3ccccc32)c1) 407 nm.
In turn, `N#Cc1nn(-c2ccc(F)cc2)nc1N1CCCC1` displayed an emission maximum (in CC#N) of 422 nm.
Take `CC1(C)c2ccccc2N(c2ccc(-c3nnc(-c4cc(-c5ccccc5)c(-c5ccccc5)c(-c5ccccc5)c4-c4ccccc4)o3)cc2)c2ccccc21`: the emission maximum runs as follows: (in Cc1ccccc1) 445 nm; (in c1ccc(-n2c(-c3c(-n4c5ccccc5c5ccccc54)cccc3-n3c4ccccc4c4ccccc43)nc3ccccc32)cc1) 453 nm.
